This passage reports AC50 results from PubChem BioAssay AID588529 (Broad Institute, 2011).

This assay concerns Candida albicans CaCi-2 growth, Alamar Blue fluorescence, 48 h. The assay can be described thus: single-agent growth inhibition of Candida albicans, dose response, CaCi-2 isolate, Alamar Blue, cherry-pick (AID 588529). On the technique in general: The colour change of resazurin is a common sign of viable cells or microbes.
By AC50 is commonly meant the midpoint of the concentration-response curve, whichever way the signal moves. Take `CCCCC(=O)NC(c1ccco1)c1cc(Cl)c2cccnc2c1O` (centres undefined): the AC50 was 6.22 µM.

Consider `O=[N+]([O-])c1ccc(O)c(/C=N/Nc2ccc(Cl)nn2)c1`, for which the concentration at half-maximal activity (AC50) is 5.11 µM.

In the case of `Oc1ccc(N=Nc2ccc3c(c2)OCCO3)c2cccnc12`, the half-maximal activity concentration (AC50) was 3.55 µM.

In the case of `COc1ccc(C)cc1N=Nc1ccc(O)c2ncccc12`, the half-maximal activity concentration (AC50) is 1.71 µM.

Take `C/C(=N\NC(=O)c1cc2ccccc2cc1O)c1ccccn1`: the AC50 is 5 µM.

As to `Cc1ccc(C(=O)c2coc3c2C(=O)C(=O)c2ccccc2-3)cc1`, the concentration at half-maximal activity (AC50) was 9.38 µM.

Regarding `O=[N+]([O-])c1cc(CN2CCN(c3ccccc3)CC2)c(O)c2ncccc12`, the concentration at half-maximal activity (AC50) was 5.39 µM.

With `CN1CCN(C(c2ccc(C(F)(F)F)cc2)c2cc(Cl)c3cccnc3c2O)CC1` (centres undefined), the AC50 was 2.71 µM.

On to `O=C(N/N=C/c1c(O)ccc2ccccc12)c1cccc(C(F)(F)F)c1`, for which the AC50 is 1.45 µM.

`Cc1cc(NC(c2ccc(Cl)cc2)c2ccc3cccnc3c2O)no1` (centres undefined): the AC50 is 4.71 µM.

For `O=Cc1ccc(O)c2ncccc12`, the AC50 was 3.85 µM.

With `COc1cccc(N=Nc2ccc3cccnc3c2O)c1`, the AC50 was 1.52 µM.

As to `CCCCC(=O)NC(c1ccc(Cl)cc1)c1ccc2cccnc2c1O` (centres undefined), the AC50 is 5.11 µM.

Consider `CN1CCN(C(c2ccc(C(F)(F)F)cc2)c2ccc3cccnc3c2O)CC1` (centres undefined), for which the AC50 was 5.05 µM.

For `CCCCC(=O)NC(c1ccc(N(CC)CC)cc1)c1ccc2cccnc2c1O` (centres undefined), the concentration at half-maximal activity (AC50) was 3.74 µM.

Consider `C=CCNC(=S)N/N=C(\C)c1ccccn1`, for which the half-maximal activity concentration (AC50) is 13.8 µM.

With `Oc1c(C(c2ccc(Cl)cc2)N2CCCC2)cc(Cl)c2cccnc12` (centres undefined), the AC50 was 1.51 µM.

As to `O=C(Oc1c(Cl)cc(Cl)c2cccnc12)c1ccco1`, the AC50 is 0.812 µM.

For the compound `O=C(N/N=C/c1cc2c3c(c1O)CCCN3CCC2)c1ccccc1O`, the AC50 is 1.75 µM.

`Oc1c(C(Nc2nccs2)c2ccc(C(F)(F)F)cc2)ccc2cccnc12` (centres undefined): the concentration at half-maximal activity (AC50) is 3.73 µM.

With `COc1cccc(/C=N/Nc2ncnc3scc(-c4ccccc4)c23)c1O`, the AC50 is 5.52 µM.

As for `O=Nc1c(-c2cccc([N+](=O)[O-])c2)nc2ncccn12`, the concentration at half-maximal activity (AC50) is 5.11 µM.

For the compound `COc1cccc(N=Nc2ccc(O)c3ncccc23)c1`, the concentration at half-maximal activity (AC50) was 0.39 µM.

With `CCCCCCC[n+]1ccc(-c2cc[n+](CCCCCCC)cc2)cc1`, the AC50 is 3.76 µM.

As to `Oc1c(C(Nc2nc3ccccc3s2)c2ccco2)ccc2cccnc12` (centres undefined), the concentration at half-maximal activity (AC50) is 3.26 µM.

On to `O=C(Oc1c(Cl)cc(Cl)c2cccnc12)c1cccs1`, for which the half-maximal activity concentration (AC50) was 1.49 µM.

For the compound `O=c1ccc(N=Nc2ccccc2)ccc1O`, the AC50 is 4.76 µM.

For the compound `Oc1c(CN2CCN(c3ccccc3)CC2)cc(Br)c2cccnc12`, the concentration at half-maximal activity (AC50) was 2.38 µM.

With `Oc1ccc(N=Nc2ccc3c(c2)OCCO3)c2ncccc12`, the AC50 is 2.59 µM.

Consider `Oc1c(CN2CCN(c3ccc(F)cc3)CC2)cc(Cl)c2cccnc12`, for which the AC50 is 3.73 µM.

Turning to `CCOc1ccc(N=Nc2ccc(O)c3ncccc23)cc1`, the AC50 is 1.4 µM.

`CCOC(=O)N1C(=O)C2(CCCCC2)N(c2ccc(C)cc2)C1=S`: the AC50 was 0.102 µM.

With `CCN(CC)S(=O)(=O)c1cc(OC)ccc1N=Nc1ccc(O)c2ncccc12`, the AC50 is 10.6 µM.

Regarding `C(C#CCCCCCCCCC[n+]1ccccc1)#CCCCCCCCCC[n+]1ccccc1`, the half-maximal activity concentration (AC50) was 16.2 µM.
